Experimental data: patent US8278295B2, “Amino-heterocyclic compounds” (Pfizer Inc., priority 2009, dated 2012)
pIC50: −log10 of the molar value.

Molecular target: human recombinant PDE9 enzyme (Homo sapiens, UniProt O76083)
Assay: PDE9 IC50, 96-well assay (Phosphodiesterase SPA)
Format: biochemical

Sequence of human recombinant PDE9 enzyme (O76083 whole entry): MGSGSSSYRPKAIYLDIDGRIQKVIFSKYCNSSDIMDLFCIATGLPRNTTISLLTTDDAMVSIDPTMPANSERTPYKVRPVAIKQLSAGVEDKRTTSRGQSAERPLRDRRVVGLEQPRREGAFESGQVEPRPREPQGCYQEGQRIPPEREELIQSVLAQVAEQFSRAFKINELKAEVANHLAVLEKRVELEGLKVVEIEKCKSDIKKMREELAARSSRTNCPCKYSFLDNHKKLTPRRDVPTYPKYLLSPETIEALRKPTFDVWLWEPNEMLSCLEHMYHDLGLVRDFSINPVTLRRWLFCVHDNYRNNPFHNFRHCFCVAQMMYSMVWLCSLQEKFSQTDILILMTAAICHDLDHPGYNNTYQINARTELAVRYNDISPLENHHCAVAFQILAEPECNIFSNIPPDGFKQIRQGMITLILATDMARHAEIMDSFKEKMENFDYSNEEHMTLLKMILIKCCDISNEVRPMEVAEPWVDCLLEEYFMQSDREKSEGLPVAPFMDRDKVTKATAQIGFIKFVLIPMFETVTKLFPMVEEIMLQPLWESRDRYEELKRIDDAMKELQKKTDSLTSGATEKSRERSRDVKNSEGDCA

pIC50: 8.02
Compound: C[C@H](c1nc2c(cnn2C2CCCC2)c(=O)[nH]1)N1CC(Oc2ncccn2)C1 [Example 13, 1-Cyclopentyl-6-{(1R)-1-[3-(pyrimidin-2-yloxy)azetidin-1-yl]ethyl}-1,5-dihydro-4H-pyrazolo[3,4-d]pyrimidin-4-one]
